Source: patent US20250361268A1, “NOVEL ANTI-INFLAMMATORY PEPTIDE AND USE THEREOF” (NOVACELL TECHNOLOGY INC., priority 2022, published 2025)
Peptide text beside a SMILES is read from it.

How the values were obtained:
[1] = target: T1, FPR2 (Homo sapiens, UniProt P25090); assay: Change in calcium activity by peptide (Fura-2) in RBL cells overexpressing FPR2; assay type: cell-based; settings: calcium activity (Fura-2), graded per Table 3, read-out: EC50 for [Ca^2+] FPR2
T1 construct: expressed in transfected cells; host or cells: RBL cells (RBL-FPR2)
T1 sequence (P25090 1-351): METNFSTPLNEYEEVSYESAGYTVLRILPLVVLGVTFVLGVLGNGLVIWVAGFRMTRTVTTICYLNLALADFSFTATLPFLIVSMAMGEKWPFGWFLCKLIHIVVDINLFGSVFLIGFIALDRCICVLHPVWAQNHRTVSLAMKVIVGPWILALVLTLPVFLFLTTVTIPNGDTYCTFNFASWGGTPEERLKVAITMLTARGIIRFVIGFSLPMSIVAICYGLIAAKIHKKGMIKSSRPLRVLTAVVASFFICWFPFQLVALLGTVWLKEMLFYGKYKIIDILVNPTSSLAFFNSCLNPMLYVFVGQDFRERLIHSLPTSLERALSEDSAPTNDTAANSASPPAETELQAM
Outline: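 Rat basophilic leukemia cells overexpressing FPR2 loaded with Fura-2 (37 °C 1 h, then RT 30 min dark); peptides (0.5 mM stocks in water or 50% DMSO) diluted in HBSS + 20 mM HEPES and added on a plate reader, intracellular Ca2+ change recorded.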

[2] = target: T2, FPR1 (Homo sapiens, UniProt P21462); assay: Change in calcium activity by peptide, FPR1 activation effect; assay type: cell-based; settings: calcium activity (Fura-2), graded per Table 3, read-out: EC50 for [Ca^2+] FPR1
T2 sequence (P21462 1-350): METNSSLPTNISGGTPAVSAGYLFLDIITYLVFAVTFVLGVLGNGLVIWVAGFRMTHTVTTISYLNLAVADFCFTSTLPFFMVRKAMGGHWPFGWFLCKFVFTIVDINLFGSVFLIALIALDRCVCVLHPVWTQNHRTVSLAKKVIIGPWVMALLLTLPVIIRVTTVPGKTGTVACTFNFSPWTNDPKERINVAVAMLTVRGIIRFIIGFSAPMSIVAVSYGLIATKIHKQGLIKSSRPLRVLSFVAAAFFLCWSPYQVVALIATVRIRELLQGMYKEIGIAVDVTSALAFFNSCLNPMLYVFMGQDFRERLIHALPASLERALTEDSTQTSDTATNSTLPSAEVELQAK
Outline: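 Cells plated at 3×10^5 per well the day before were loaded with Fura-2 for 1 h at 37 °C, then kept 30 min in the dark at room temperature. Peptide-evoked calcium changes were recorded on a FlexStation 3.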

| Structure (SMILES) | EC50 [1] [nM] | EC50 [2] [nM] |
| --- | --- | --- |
| CC[C@H](C)[C@H](N)C(=O)N[C@@H](CCCCN)C(=O)N[C@@H](Cc1ccc(O)cc1)C(=O)N[C@@H](CCCCN)C(=O)N1CCC[C@H]1C(=O)N[C@H](CCSC)C(N)=O [Peptide 142] (HELM PEPTIDE1{I.K.Y.K.P.[dM].[am]}$$$$V2.0) | < 10 | > 10000 |
| CC[C@H](C)[C@H](NC(C)=O)C(=O)N[C@@H](CCCCN)C(=O)N[C@@H](Cc1ccc(O)cc1)C(=O)N[C@@H](CCCCN)C(=O)N1CCC[C@H]1C(=O)N[C@H](CCSC)C(N)=O [Peptide 143] (HELM PEPTIDE1{[ac].I.K.Y.K.P.[dM].[am]}$$$$V2.0) | < 10 | > 10000 |
| CCCC(=O)N[C@H](C(=O)N[C@@H](CCCCN)C(=O)N[C@@H](Cc1ccc(O)cc1)C(=O)N[C@@H](CCCCN)C(=O)N1CCC[C@H]1C(=O)N[C@H](CCSC)C(N)=O)[C@@H](C)CC [Peptide 144] (HELM PEPTIDE1{[CCCC(=O)[*:2]].I.K.Y.K.P.[dM].[am]}$$$$V2.0) | < 10 | > 10000 |
| CCCCCCCC(=O)N[C@H](C(=O)N[C@@H](CCCCN)C(=O)N[C@@H](Cc1ccc(O)cc1)C(=O)N[C@@H](CCCCN)C(=O)N1CCC[C@H]1C(=O)N[C@H](CCSC)C(N)=O)[C@@H](C)CC [Peptide 145] (HELM PEPTIDE1{[CCCCCCCC(=O)[*:2]].I.K.Y.K.P.[dM].[am]}$$$$V2.0) | 11 to 100 | > 10000 |
| CSCC[C@@H](NC(=O)[C@@H]1CCCN1C(=O)[C@H](CCCCN)NC(=O)[C@H](Cc1ccc(O)cc1)NC(=O)[C@H](CCCCN)NC(=O)[C@@H](N)Cc1c[nH]cn1)C(N)=O [Peptide 146] (HELM PEPTIDE1{H.K.Y.K.P.[dM].[am]}$$$$V2.0) | < 10 | > 10000 |
| CSCC[C@@H](NC(=O)[C@@H]1CCCN1C(=O)[C@H](CCCCN)NC(=O)[C@H](Cc1ccc(O)cc1)NC(=O)[C@H](CCCCN)NC(=O)[C@H](Cc1c[nH]cn1)NC(C)=O)C(N)=O [Peptide 147] (HELM PEPTIDE1{[ac].H.K.Y.K.P.[dM].[am]}$$$$V2.0) | < 10 | > 10000 |
| CCCC(=O)N[C@@H](Cc1c[nH]cn1)C(=O)N[C@@H](CCCCN)C(=O)N[C@@H](Cc1ccc(O)cc1)C(=O)N[C@@H](CCCCN)C(=O)N1CCC[C@H]1C(=O)N[C@H](CCSC)C(N)=O [Peptide 148] (HELM PEPTIDE1{[CCCC(=O)[*:2]].H.K.Y.K.P.[dM].[am]}$$$$V2.0) | < 10 | > 10000 |
| CCCCCCCC(=O)N[C@@H](Cc1c[nH]cn1)C(=O)N[C@@H](CCCCN)C(=O)N[C@@H](Cc1ccc(O)cc1)C(=O)N[C@@H](CCCCN)C(=O)N1CCC[C@H]1C(=O)N[C@H](CCSC)C(N)=O [Peptide 149] (HELM PEPTIDE1{[CCCCCCCC(=O)[*:2]].H.K.Y.K.P.[dM].[am]}$$$$V2.0) | < 10 | > 10000 |
| CSCC[C@@H](NC(=O)[C@@H]1CCCN1C(=O)[C@H](Cc1c[nH]c2ccccc12)NC(=O)[C@H](Cc1ccc(O)cc1)NC(=O)[C@H](CCCCN)NC(=O)[C@H](Cc1c[nH]cn1)NC(C)=O)C(N)=O [Peptide 150] (HELM PEPTIDE1{[ac].H.K.Y.W.P.[dM].[am]}$$$$V2.0) | < 10 | 1000 to 10000 |
| CCCC(=O)N[C@@H](Cc1c[nH]cn1)C(=O)N[C@@H](CCCCN)C(=O)N[C@@H](Cc1ccc(O)cc1)C(=O)N[C@@H](Cc1c[nH]c2ccccc12)C(=O)N1CCC[C@H]1C(=O)N[C@H](CCSC)C(N)=O [Peptide 151] (HELM PEPTIDE1{[CCCC(=O)[*:2]].H.K.Y.W.P.[dM].[am]}$$$$V2.0) | < 10 | 1000 to 10000 |
| CC[C@H](C)[C@H](NC(=O)[C@H](CCCNC(=N)N)NC(=O)[C@H](Cc1ccc(O)cc1)NC(=O)[C@H](CCCNC(=N)N)NC(=O)[C@H](Cc1c[nH]c2ccccc12)NC(=O)[C@@H](N)CCCNC(=N)N)C(=O)N[C@H](CCSC)C(N)=O [Peptide 152] (HELM PEPTIDE1{R.W.R.Y.R.I.[dM].[am]}$$$$V2.0) | 11 to 100 | > 10000 |
| CSCC[C@@H](NC(=O)[C@@H](NC(=O)[C@H](CCCNC(=N)N)NC(=O)[C@H](Cc1ccc(O)cc1)NC(=O)[C@H](CCCNC(=N)N)NC(=O)[C@H](Cc1c[nH]c2ccccc12)NC(=O)[C@@H](N)CCCNC(=N)N)[C@@H](C)O)C(N)=O [Peptide 153] (HELM PEPTIDE1{R.W.R.Y.R.T.[dM].[am]}$$$$V2.0) | 11 to 100 | > 10000 |
| CSCC[C@@H](NC(=O)[C@H](Cc1ccc(O)cc1)NC(=O)[C@H](CC(C)C)NC(=O)[C@H](Cc1ccc(O)cc1)NC(=O)[C@H](CCCNC(=N)N)NC(=O)[C@H](Cc1c[nH]c2ccccc12)NC(=O)[C@@H](N)CCCNC(=N)N)C(N)=O [Peptide 154] (HELM PEPTIDE1{R.W.R.Y.L.Y.[dM].[am]}$$$$V2.0) | < 10 | > 10000 |
| CSCC[C@@H](NC(=O)[C@H](Cc1ccc(O)cc1)NC(=O)[C@H](CC(N)=O)NC(=O)[C@H](Cc1ccc(O)cc1)NC(=O)[C@H](CCCNC(=N)N)NC(=O)[C@H](Cc1c[nH]c2ccccc12)NC(=O)[C@@H](N)CCCNC(=N)N)C(N)=O [Peptide 155] (HELM PEPTIDE1{R.W.R.Y.N.Y.[dM].[am]}$$$$V2.0) | 11 to 100 | > 10000 |
| CSCC[C@@H](NC(=O)[C@H](Cc1ccc(O)cc1)NC(=O)[C@H](Cc1ccccc1)NC(=O)[C@H](Cc1ccc(O)cc1)NC(=O)[C@H](CCCNC(=N)N)NC(=O)[C@H](Cc1c[nH]c2ccccc12)NC(=O)[C@@H](N)CCCNC(=N)N)C(N)=O [Peptide 156] (HELM PEPTIDE1{R.W.R.Y.F.Y.[dM].[am]}$$$$V2.0) | < 10 | > 10000 |

Second part, the compound after the results:

| EC50 [1] [nM] | EC50 [2] [nM] | Structure (SMILES) |
| --- | --- | --- |
| < 10 | > 10000 | CC[C@H](C)[C@H](N)C(=O)N[C@@H](CCCCN)C(=O)N[C@@H](Cc1ccccc1)C(=O)N[C@@H](CCCCN)C(=O)N1CCC[C@H]1C(=O)N[C@H](CCSC)C(N)=O [Peptide 133] (HELM PEPTIDE1{I.K.F.K.P.[dM].[am]}$$$$V2.0) |
| < 10 | > 10000 | CC[C@H](C)[C@H](N)C(=O)N[C@@H](CCCCN)C(=O)N[C@@H](Cc1ccc(O)cc1)C(=O)N[C@@H](CCCCN)C(=O)N[C@H](C(=O)N[C@H](CCSC)C(N)=O)C(C)C [Peptide 134] (HELM PEPTIDE1{I.K.Y.K.V.[dM].[am]}$$$$V2.0) |
| < 10 | > 10000 | CC[C@H](C)[C@H](NC(C)=O)C(=O)N[C@@H](CCCCN)C(=O)N[C@@H](Cc1ccc(O)cc1)C(=O)N[C@@H](CCCCN)C(=O)N[C@H](C(=O)N[C@H](CCSC)C(N)=O)C(C)C [Peptide 135] (HELM PEPTIDE1{[ac].I.K.Y.K.V.[dM].[am]}$$$$V2.0) |
| < 10 | > 10000 | CCCC(=O)N[C@H](C(=O)N[C@@H](CCCCN)C(=O)N[C@@H](Cc1ccc(O)cc1)C(=O)N[C@@H](CCCCN)C(=O)N[C@H](C(=O)N[C@H](CCSC)C(N)=O)C(C)C)[C@@H](C)CC [Peptide 136] (HELM PEPTIDE1{[CCCC(=O)[*:2]].I.K.Y.K.V.[dM].[am]}$$$$V2.0) |
| < 10 | 1000 to 10000 | CCCCCCCC(=O)N[C@H](C(=O)N[C@@H](CCCCN)C(=O)N[C@@H](Cc1ccc(O)cc1)C(=O)N[C@@H](CCCCN)C(=O)N[C@H](C(=O)N[C@H](CCSC)C(N)=O)C(C)C)[C@@H](C)CC [Peptide 137] (HELM PEPTIDE1{[CCCCCCCC(=O)[*:2]].I.K.Y.K.V.[dM].[am]}$$$$V2.0) |
| < 10 | > 10000 | CSCC[C@@H](NC(=O)[C@@H](NC(=O)[C@H](CCCCN)NC(=O)[C@H](Cc1ccc(O)cc1)NC(=O)[C@H](CCCCN)NC(=O)[C@@H]1CCCN1)C(C)C)C(N)=O [Peptide 138] (HELM PEPTIDE1{P.K.Y.K.V.[dM].[am]}$$$$V2.0) |
| < 10 | > 10000 | CSCC[C@@H](NC(=O)[C@@H](NC(=O)[C@H](CCCCN)NC(=O)[C@H](Cc1ccc(O)cc1)NC(=O)[C@H](CCCCN)NC(=O)[C@@H]1CCCN1C(C)=O)C(C)C)C(N)=O [Peptide 139] (HELM PEPTIDE1{[ac].P.K.Y.K.V.[dM].[am]}$$$$V2.0) |
| < 10 | > 10000 | CCCC(=O)N1CCC[C@H]1C(=O)N[C@@H](CCCCN)C(=O)N[C@@H](Cc1ccc(O)cc1)C(=O)N[C@@H](CCCCN)C(=O)N[C@H](C(=O)N[C@H](CCSC)C(N)=O)C(C)C [Peptide 140] (HELM PEPTIDE1{[CCCC(=O)[*:2]].P.K.Y.K.V.[dM].[am]}$$$$V2.0) |
| < 10 | > 10000 | CCCCCCCC(=O)N1CCC[C@H]1C(=O)N[C@@H](CCCCN)C(=O)N[C@@H](Cc1ccc(O)cc1)C(=O)N[C@@H](CCCCN)C(=O)N[C@H](C(=O)N[C@H](CCSC)C(N)=O)C(C)C [Peptide 141] (HELM PEPTIDE1{[CCCCCCCC(=O)[*:2]].P.K.Y.K.V.[dM].[am]}$$$$V2.0) |
